The results in this text go back to patent US7115279B2, “Pharmaceutical compositions of cholesteryl ester transfer protein inhibitors” (priority 2000, dated 2006).

A value given as a limit tells only on which side of the number the result lay.

Assay type in all cases: physicochemical
Data set [1] can be described thus: in vitro dissolution test, microcentrifuge method, PBS (Example 42, Drugs 4-9 dispersions). The settings on record: PBS pH 6.5, 37° C.; for Cmax: phosphate-buffered saline, read-out: Cmax, 90. Here is the method: In this method, 15 mg of each SDD was added to a 2-mL microcentrifuge tube. The tube was placed in a 37° C. sonicating bath, and 1.5 mL of a phosphate-buffered saline (PBS) solution at pH 6.5 and 290 mOsm/kg) was added, resulting in a TCmax of 1000 μg/mL. The samples were quickly mixed using a combination of vortex mixer and sonication for about 90 seconds. The samples were centrifuged at 13,000 G at 37° C. for 1 minute. The resulting supernatant solution was then sampled and diluted 1:6 (by volume) with methanol and then analyzed by HPLC. The tubes were then mixed on the vortex mixer and allowed to stand undisturbed at 37° C. until the next sample. Samples were collected at 4, 10, 20, 40, and 90 minutes.
For Controls 6–11, an in vitro dissolution test was performed using the procedure described above, except that 1.5 mg of non-crystalline drug was placed in a microcentrifuge tube and mixed with 1.5 mL of PBS.

A short description of data set [2]: in vitro dissolution test, microcentrifuge method, MFDS (Example 5, Drug 1 dispersions). The note with it: model-fasted duodenal solution (MFDS), pH 6.5, maximum concentration of Drug 1 in solution during the 90-minute test, TCmax 100 or 500 μg/mL. Here is the method:
The spray-dried dispersions of Examples 1 to 4 were evaluated in in vitro dissolution tests using a microcentrifuge method. In this method, 1 mg of the spray-dried dispersions was added to a 1.5-mL microcentrifuge tube. The tube was placed in a 37° C. sonicating bath, and 1 mL of a model-fasted duodenal solution (MFDS) (comprising sodium taurocholate/1-palmitoyl-2-oleoyl-sn-glycero-3-phosphocholine (NaTC-POPC) in phosphate-buffered saline (PBS) at pH 6.5 and 290 mOsm/kg) was added. The samples were quickly mixed using a combination of vortex mixer and sonication for about 90 seconds. The theoretical maximum concentration (“TCmax”) of drug for Examples 1–3 if all the drug dissolved was 100 μg/mL, while for Example 4 the TCmax was 500 μg/mL. The samples were centrifuged at 13,000 G at 37° C. for 1 minute. The resulting supernatant solution was then sampled (100 μL) and diluted with 200 μL methanol and then analyzed by HPLC. The tubes were then mixed on the vortex mixer and allowed to stand undisturbed at 37° C. until the next sample. Samples were collected at 3, 10, 30, 60, and 90 minutes and for Examples 1 and 2 at 1200 minutes.
For Control 1, an in vitro test was performed using the procedure described above, except that 0.18 mg of crystalline Drug 1 was placed in a microcentrifuge tube and mixed with 1.8 mL of MFDS.

A short description of data set [3]: in vitro dissolution test, microcentrifuge method, PBS (Example 8, Drug 2 dispersions). The note with it: for Drug 2 Concentration / AUC: PBS pH 6.5, 37° C.; for Drug 2 Concentration: dose about 1000 μg/mL. The protocol: The spray-dried dispersions of Examples 6 and 7 were evaluated in an in vitro dissolution test using a microcentrifuge method. In this test, the spray-dried dispersion was added to a microcentrifuge tube for a Drug 2 dose of about 1000 μg/mL (7.2 mg for Example 6, 18 mg for Example 7). The tube was placed in a 37° C. sonicating bath, and 1.8 mL phosphate buffered saline (PBS) at pH 6.5 and 290 mOsm/kg was added. The samples were quickly mixed using a vortex mixer for about 60 seconds. The samples were centrifuged at 13,000 G at 37° C. for 1 minute. The resulting supernatant solution was then sampled and diluted 1:6 (by volume) with methanol and then analyzed by high-performance liquid chromatography (HPLC). The contents of the tubes were mixed on the vortex mixer and allowed to stand undisturbed at 37° C. until the next sample was taken. Samples were collected at 4, 10, 20, 40, 90, and 1200 minutes. […]

Data set [4] is described as follows: in vitro dissolution test, receptor solution MFDS (Example 17, Drug 2 dispersions). The settings on record: TCmax 400 or 100 μg/mL, read-out: Cmax, 90. Here is the method: The spray-dried dispersions of Examples 6 and 7 were evaluated in an in vitro dissolution test using a microcentrifuge method. In this test, the spray-dried dispersion was added to a microcentrifuge tube for a Drug 2 dose of about 1000 μg/mL (7.2 mg for Example 6, 18 mg for Example 7). The tube was placed in a 37° C. sonicating bath, and 1.8 mL phosphate buffered saline (PBS) at pH 6.5 and 290 mOsm/kg was added. The samples were quickly mixed using a vortex mixer for about 60 seconds. The samples were centrifuged at 13,000 G at 37° C. for 1 minute. The resulting supernatant solution was then sampled and diluted 1:6 (by volume) with methanol and then analyzed by high-performance liquid chromatography (HPLC). The contents of the tubes were mixed on the vortex mixer and allowed to stand undisturbed at 37° C. until the next sample was taken. Samples were collected at 4, 10, 20, 40, 90, and 1200 minutes.
The dispersions of Examples 9–16 were also evaluated in an in vitro dissolution test using receptor solutions of MFDS using the procedures outlined in Example 8.
For Control 3, an in vitro dissolution test was performed using the procedure described above except that 0.72 mg of crystalline Drug 2 was used.

The nature of data set [5]: in vitro dissolution test, microcentrifuge method, PBS (Example 29, Drug 3 dispersions). The note with it: phosphate-buffered saline, pH 6.5, TCmax 400 μg/mL, read-out: Cmax, 90. The protocol: The spray-dried dispersions of Examples 21–28 were evaluated in an in vitro dissolution test using a microcentrifuge method. In this method, 7.2 mg of each SDD was added to a 2-mL microcentrifuge tube. The tube was placed in a 37° C. sonicating bath, and 1.8 mL of a phosphate-buffered saline (PBS) solution at pH 6.5 and 290 mOsm/kg was added, resulting in a TCmax of 400 μg/mL. The samples were quickly mixed using a combination of vortex mixer and sonication for about 90 seconds. The samples were centrifuged at 13,000 G at 37° C. for 1 minute. The resulting supernatant solution was then sampled and diluted 1:6 (by volume) with methanol and then analyzed by HPLC. The tubes were then mixed on the vortex mixer and allowed to stand undisturbed at 37° C. until the next sample. Samples were collected at 4, 10, 20, 40, 90 and 1200 minutes.
For Control 5, an in vitro dissolution test was performed using the procedure described above, except that 0.72 mg of non-crystalline Drug 3 was placed in a microcentrifuge tube and mixed with 1.8 mL of PBS.

Turning to `CC1(C)Cc2nc(C3CCCC3)c([C@@H](F)c3ccc(C(F)(F)F)cc3)c(-c3ccc(F)cc3)c2[C@@H](O)C1` [Control 11, [3S,5S] 2-cyclopentyl-4-(4-fluoro-phenyl)-3-[fluoro-(4-trifluoromethyl-phenyl)-methyl]-7,7-dimethyl-5,6,7,8-tetrahydro-quinolin-5-ol], the “Cmax, 90” value in data set [1] (TCmax 1000 μg/mL) is below 1000 ng/mL.
Turning to `COC(=O)N(Cc1cc(C(F)(F)F)cc(C(F)(F)F)c1)[C@@H]1C[C@H](C2CC2)N(C(=O)OC(C)C)c2ccc(C(F)(F)F)cc21` [Control 1, [2R,4R] 4-[(3,5-bis-trifluoromethyl-benzyl)-methoxycarbonyl-amino]-2-cyclopropyl-6-trifluoromethyl-3,4-dihydro-2H-quinoline-1-carboxylic acid isopropyl ester], the highest concentration (Cmax) at 100 μg/mL in data set [2] was 900 ng/mL.
`CCOC(=O)N1c2cc(CC)c(CC)cc2[C@@H](N(Cc2cc(C(F)(F)F)cc(C(F)(F)F)c2)C(=O)OC)C[C@H]1C` [Control 7, [2R,4S] 4-[(3,5-bis-trifluoromethyl-benzyl)-methoxycarbonyl-amino]-6,7-diethyl-2-methyl-3,4-dihydro-2H-quinoline-1-carboxylic acid ethyl ester]: the Cmax in data set [1] (TCmax 1000 μg/mL) is below 1000 ng/mL.
The same measure, in the same setting: next, `COC(=O)N(Cc1cc(C(F)(F)F)cc(C(F)(F)F)c1)[C@H]1C[C@@H](C2CC2)N(C(=O)OC(C)C)c2ccc(C(F)(F)F)cc21` [Control 10, [2S,4S] 4-[(3,5-bis-trifluoromethyl-benzyl)-methoxycarbonyl-amino]-2-cyclopropyl-6-trifluoromethyl-3,4-dihydro-2H-quinoline-1-carboxylic acid isopropyl ester]: below 1000 ng/mL.
As to `CCOC(=O)N1c2ccc(C(F)(F)F)cc2[C@@H](N(Cc2cc(C(F)(F)F)cc(C(F)(F)F)c2)C(=O)OC)C[C@H]1CC` [Control 2, [2R,4S] 4-[(3,5-bis-trifluoromethyl-benzyl)-methoxycarbonyl-amino]-2-ethyl-6-trifluoromethyl-3,4-dihydro-2H-quinoline-1-carboxylic acid ethyl ester], the “Drug 2 Concentration” value was 0 µg/mL in data set [3] (time 0 min); 6 µg/mL in data set [3] (time 4 min); below 1 µg/mL in data set [3] (time 10 min); below 1 µg/mL in data set [3] (time 20 min); 3 µg/mL in data set [3] (time 40 min); below 1 µg/mL in data set [3] (time 90 min). For the same molecule, the “Drug 2 Concentration” value in data set [3] (time 1200 min) was below 1 µg/mL. Also, the AUC in data set [3] (time 0 min) was found to be 0 µg·min/mL; in data set [3] (time 4 min) it was 12 µg·min/mL; in data set [3] (time 10 min) it was 30 µg·min/mL; in data set [3] (time 20 min), 30 µg·min/mL; in data set [3] (time 40 min), 60 µg·min/mL; in data set [3] (time 90 min), 135 µg·min/mL. This molecule had an AUC in data set [3] (time 1200 min) of 135 µg·min/mL. In data set [3] (area under the aqueous concentration versus time curve after 90 minutes, PBS), this molecule yielded an AUC90 of 135 µg·min/mL. The Cmax at 1000 μg/mL in data set [3] (phosphate buffered saline (PBS), pH 6.5, maximum concentration of Drug 2 in solution during the first 90 minutes, PBS) was found to be 6000 ng/mL.
As to `CCOC(=O)N1c2cc3c(cc2[C@@H](N(Cc2cc(C(F)(F)F)cc(C(F)(F)F)c2)C(=O)OC)C[C@H]1C)CCC3` [Control 8, [2R,4S] 4-[(3,5-bis-trifluoromethyl-benzyl)-methoxycarbonyl-amino]-2-methyl-2,3,4,6,7,8-hexahydro-cyclopenta[g]quinoline-1-carboxylic acid ethyl ester], in data set [1] (Time 0 min), the exposure (AUC) was determined as 0 µg·min/mL and the Concentration was determined as 0 ng/mL. In addition, the Cmax in data set [1] (TCmax 1000 μg/mL) is below 1000 ng/mL.
As for `CCOC(=O)N1c2ccc(C(F)(F)F)cc2[C@@H](N(Cc2cc(C(F)(F)F)cc(C(F)(F)F)c2)C(=O)OC)C[C@H]1CC` [Control 3, [2R,4S] 4-[(3,5-bis-trifluoromethyl-benzyl)-methoxycarbonyl-amino]-2-ethyl-6-trifluoromethyl-3,4-dihydro-2H-quinoline-1-carboxylic acid ethyl ester], in data set [4], the Cmax is below 1000 ng/mL.
For `CCOC(=O)N1c2cc(OC)c(OC)cc2[C@@H](N(Cc2cc(C(F)(F)F)cc(C(F)(F)F)c2)C(=O)OC)C[C@H]1C` [Control 6, [2R,4S] 4-[(3,5-bis-trifluoromethyl-benzyl)-methoxycarbonyl-amino]-6,7-dimethoxy-2-methyl-3,4-dihydro-2H-quinoline-1-carboxylic acid ethyl ester], the Cmax in data set [1] (TCmax 1000 μg/mL) is below 1000 ng/mL.
Still for that read-out and setting: next, `CC[C@@H]1C[C@H](N(Cc2cc(C(F)(F)F)cc(C(F)(F)F)c2)C(C)=O)c2cc(C(F)(F)F)ccc2N1C(=O)OC(C)C` [Control 9, [2R,4S] 4-[acetyl-(3,5-bis-trifluoromethyl-benzyl)-amino]-2-ethyl-6-trifluoromethyl-3,4-dihydro-2H-quinoline-1-carboxylic acid isopropyl ester]: below 1000 ng/mL.
With `CCCOC(=O)N1c2ccc(C(F)(F)F)cc2[C@@H](N(Cc2cc(C(F)(F)F)cc(C(F)(F)F)c2)C(=O)OC)C[C@H]1CC` [Control 5, [2R,4S] 4-[(3,5-bis-trifluoromethyl-benzyl)-methoxycarbonyl-amino]-2-ethyl-6-trifluoromethyl-3,4-dihydro-2H-quinoline-1-carboxylic acid propyl ester], in data set [5], the Cmax is below 100 ng/mL.
